# Assay results: ChEMBL document CHEMBL4257455, “Recent development of lipoxygenase inhibitors as anti-inflammatory agents” (Medchemcomm, 2018)
# Experiments:
# Mus musculus = experiment: Anti-inflammatory activity in mouse assessed as inhibition of xylene induced ear edema at 30 mg/kg relative to control; type: functional; set-up: scale not given: the % may be the effect or the level left
# [1] = biological target: T1, Polyunsaturated fatty acid lipoxygenase ALOX12 (Homo sapiens, UniProt P18054); experiment: Inhibition of human N-terminal His-tagged 12-LOX expressed in Escherichia coli(Rosetta) by rhodamine 123 dye-based fluorescence assay
# T1 sequence (P18054 whole entry): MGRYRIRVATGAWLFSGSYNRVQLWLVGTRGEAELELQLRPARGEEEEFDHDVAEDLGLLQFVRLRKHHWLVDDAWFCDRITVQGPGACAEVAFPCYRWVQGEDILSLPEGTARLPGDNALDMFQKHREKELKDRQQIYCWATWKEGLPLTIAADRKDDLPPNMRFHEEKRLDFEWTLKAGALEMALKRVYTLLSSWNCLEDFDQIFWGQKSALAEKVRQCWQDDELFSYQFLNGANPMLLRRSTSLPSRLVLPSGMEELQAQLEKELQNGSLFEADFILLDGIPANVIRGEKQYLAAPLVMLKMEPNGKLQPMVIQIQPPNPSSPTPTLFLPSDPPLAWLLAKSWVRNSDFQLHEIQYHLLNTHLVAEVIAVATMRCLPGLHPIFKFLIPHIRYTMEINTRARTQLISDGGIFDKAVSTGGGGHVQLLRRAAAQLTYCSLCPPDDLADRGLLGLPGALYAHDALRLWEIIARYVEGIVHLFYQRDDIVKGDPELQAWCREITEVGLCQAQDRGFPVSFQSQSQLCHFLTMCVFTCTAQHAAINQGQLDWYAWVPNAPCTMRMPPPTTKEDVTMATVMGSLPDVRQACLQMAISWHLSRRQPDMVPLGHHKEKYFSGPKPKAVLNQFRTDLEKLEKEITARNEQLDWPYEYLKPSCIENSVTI
# [2] = biological target: T2, Polyunsaturated fatty acid lipoxygenase ALOX15 (Homo sapiens, UniProt P16050); experiment: Inhibition of human N-terminal His-tagged 15-LOX expressed in Escherichia coli(Rosetta) by rhodamine 123 dye-based fluorescence assay
# T2 sequence (P16050 whole entry): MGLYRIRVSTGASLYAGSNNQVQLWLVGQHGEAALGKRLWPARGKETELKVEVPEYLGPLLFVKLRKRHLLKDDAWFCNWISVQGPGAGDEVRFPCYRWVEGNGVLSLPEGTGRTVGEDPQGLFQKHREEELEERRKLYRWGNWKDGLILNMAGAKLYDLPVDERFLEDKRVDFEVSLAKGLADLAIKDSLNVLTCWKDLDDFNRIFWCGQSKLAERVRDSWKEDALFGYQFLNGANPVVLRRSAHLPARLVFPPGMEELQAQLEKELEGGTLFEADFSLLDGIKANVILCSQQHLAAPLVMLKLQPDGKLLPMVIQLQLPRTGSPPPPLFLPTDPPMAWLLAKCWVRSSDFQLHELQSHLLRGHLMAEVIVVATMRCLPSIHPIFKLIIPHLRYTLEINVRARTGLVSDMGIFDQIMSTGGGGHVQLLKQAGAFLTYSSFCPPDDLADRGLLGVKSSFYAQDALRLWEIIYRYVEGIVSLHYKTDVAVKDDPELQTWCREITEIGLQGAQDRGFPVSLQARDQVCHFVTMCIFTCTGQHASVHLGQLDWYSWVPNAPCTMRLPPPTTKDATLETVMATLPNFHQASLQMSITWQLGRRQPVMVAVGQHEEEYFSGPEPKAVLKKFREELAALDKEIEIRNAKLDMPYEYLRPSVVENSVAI
# [3] = biological target: T3, Polyunsaturated fatty acid 5-lipoxygenase (Homo sapiens, UniProt P09917); experiment: Inhibition of human N-terminal His-tagged 5-LOX expressed in Escherichia coli(Rosetta) by rhodamine 123 dye-based fluorescence assay
# T3 sequence (P09917 whole entry): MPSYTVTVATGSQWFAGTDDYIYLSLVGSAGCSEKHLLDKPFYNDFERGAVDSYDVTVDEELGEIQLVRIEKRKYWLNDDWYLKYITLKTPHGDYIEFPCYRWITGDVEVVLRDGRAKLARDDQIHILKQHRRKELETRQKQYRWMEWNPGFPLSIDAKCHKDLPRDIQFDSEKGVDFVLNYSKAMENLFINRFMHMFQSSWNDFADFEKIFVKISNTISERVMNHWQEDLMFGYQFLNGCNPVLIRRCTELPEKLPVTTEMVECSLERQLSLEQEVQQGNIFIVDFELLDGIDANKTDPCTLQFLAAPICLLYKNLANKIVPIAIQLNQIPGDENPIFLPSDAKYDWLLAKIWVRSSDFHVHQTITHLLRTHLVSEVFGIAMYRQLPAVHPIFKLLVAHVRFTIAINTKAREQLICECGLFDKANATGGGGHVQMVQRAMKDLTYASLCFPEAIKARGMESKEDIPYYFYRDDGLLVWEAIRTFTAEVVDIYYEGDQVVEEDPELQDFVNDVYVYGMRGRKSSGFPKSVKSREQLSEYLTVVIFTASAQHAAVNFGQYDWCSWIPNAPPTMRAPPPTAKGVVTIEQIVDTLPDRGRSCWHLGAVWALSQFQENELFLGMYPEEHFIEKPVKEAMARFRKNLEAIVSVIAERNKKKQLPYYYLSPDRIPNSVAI
# [4] = Inhibition of LOX (unknown origin); set-up: species or system Homo sapiens
# [5] = biological target: T4, Arachidonate 5-lipoxygenase-activating protein (Homo sapiens, UniProt P20292); experiment: Inhibition of FLAP in human leukocytes assessed as decrease in ionophore A23187-induced LT biosynthesis after 10 mins; type: cell-based
# T4 sequence (P20292 whole entry): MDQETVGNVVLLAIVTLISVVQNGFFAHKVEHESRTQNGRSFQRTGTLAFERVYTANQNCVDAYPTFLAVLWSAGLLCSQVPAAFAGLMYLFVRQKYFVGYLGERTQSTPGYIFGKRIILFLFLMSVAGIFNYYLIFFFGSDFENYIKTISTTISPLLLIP
# [6] = Inhibition of soybean 5LOX using linoleic acid as substrate preincubated for 5 mins followed by substrate addition and measured after 20 mins by spectrophotometric analysis; set-up: species or system Glycine max
# [7] = biological target: T5, Polyunsaturated fatty acid 5-lipoxygenase (Rattus norvegicus, UniProt P12527); experiment: Inhibition of rat 5-LOX expressed in Sf21 insect cells preincubated for 4 mins followed by AA substrate addition and measured after 4 mins by FOX assay
# T5 sequence (P12527 whole entry): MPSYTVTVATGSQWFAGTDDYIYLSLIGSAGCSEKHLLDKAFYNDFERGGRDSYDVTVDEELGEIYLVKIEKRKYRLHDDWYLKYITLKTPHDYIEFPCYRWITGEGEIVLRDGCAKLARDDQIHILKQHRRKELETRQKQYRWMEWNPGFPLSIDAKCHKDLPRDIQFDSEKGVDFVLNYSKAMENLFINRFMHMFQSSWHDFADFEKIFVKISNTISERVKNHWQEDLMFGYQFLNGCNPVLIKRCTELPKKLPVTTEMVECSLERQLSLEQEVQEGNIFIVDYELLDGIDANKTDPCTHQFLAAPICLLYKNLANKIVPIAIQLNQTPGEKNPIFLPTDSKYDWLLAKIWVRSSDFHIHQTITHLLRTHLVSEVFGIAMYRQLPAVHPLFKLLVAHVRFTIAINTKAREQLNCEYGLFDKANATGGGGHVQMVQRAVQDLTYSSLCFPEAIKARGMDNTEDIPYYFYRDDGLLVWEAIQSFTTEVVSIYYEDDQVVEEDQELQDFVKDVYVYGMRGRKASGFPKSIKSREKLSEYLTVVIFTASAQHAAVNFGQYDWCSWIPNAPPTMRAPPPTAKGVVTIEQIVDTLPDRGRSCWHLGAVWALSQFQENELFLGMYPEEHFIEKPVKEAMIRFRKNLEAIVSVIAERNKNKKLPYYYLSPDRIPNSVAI
# [8] = biological target: T6, Polyunsaturated fatty acid lipoxygenase ALOX15 (Homo sapiens) (UniProt P16050); experiment: Inhibition of 15-LOX (unknown origin) at 12.7 uM relative to control
# T6 sequence (whole entry): T2 sequence (P16050 whole entry)
# [9] = biological target: T3, Polyunsaturated fatty acid 5-lipoxygenase; experiment: Inhibition of 5-LOX (unknown origin)
# [10] = Inhibition of soybean 15-LOX using linoleic acid as substrate preincubated for 15 mins followed by substrate addition and measured up to 6 mins by spectrophotometric analysis; set-up: species or system Glycine max
# [11] = biological target: T7, Seed linoleate 13S-lipoxygenase-1 (Glycine max, UniProt P08170); experiment: Inhibition of soybean LOX-1 using linoleic acid as substrate preincubated for 120 secs with substrate followed by enzyme addition and measured every 30 secs for 7.5 mins by spectrophotometric analysis
# T7 sequence (P08170 whole entry): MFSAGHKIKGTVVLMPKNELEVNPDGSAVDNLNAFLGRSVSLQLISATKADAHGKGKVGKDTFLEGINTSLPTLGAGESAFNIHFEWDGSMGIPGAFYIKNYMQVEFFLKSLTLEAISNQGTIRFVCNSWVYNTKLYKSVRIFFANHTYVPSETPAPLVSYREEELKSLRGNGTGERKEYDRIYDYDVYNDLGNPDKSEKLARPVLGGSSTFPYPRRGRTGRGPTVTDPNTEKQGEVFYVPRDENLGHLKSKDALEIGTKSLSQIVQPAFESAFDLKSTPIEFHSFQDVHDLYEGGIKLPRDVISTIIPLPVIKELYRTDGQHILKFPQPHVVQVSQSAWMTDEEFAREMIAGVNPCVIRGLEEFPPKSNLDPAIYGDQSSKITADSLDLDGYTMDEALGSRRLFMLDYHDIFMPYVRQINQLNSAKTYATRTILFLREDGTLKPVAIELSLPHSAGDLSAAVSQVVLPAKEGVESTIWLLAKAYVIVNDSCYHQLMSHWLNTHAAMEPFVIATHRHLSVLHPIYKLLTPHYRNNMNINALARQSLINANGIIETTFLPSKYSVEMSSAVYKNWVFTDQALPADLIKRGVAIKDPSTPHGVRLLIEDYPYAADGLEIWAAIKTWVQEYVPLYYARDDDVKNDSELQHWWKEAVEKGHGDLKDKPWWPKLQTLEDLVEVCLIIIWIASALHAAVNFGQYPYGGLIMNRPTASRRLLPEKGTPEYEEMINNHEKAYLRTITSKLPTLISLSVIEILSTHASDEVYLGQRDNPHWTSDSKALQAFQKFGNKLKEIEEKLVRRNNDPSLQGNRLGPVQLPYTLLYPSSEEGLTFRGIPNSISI
# [12] = biological target: T4, Arachidonate 5-lipoxygenase-activating protein; experiment: Inhibition of FLAP in human neutrophils assessed as decrease in LT biosynthesis preincubated for 15 mins followed by AA substrate addition by HPLC analysis
smiles,measurement,setting,value
Cc1ccc(-c2cc(C(F)(F)F)nn2-c2ccc(S(N)(=O)=O)cc2)cc1 [CELECOXIB],Activity,Mus musculus,46.7%
CC(C)=CCc1c(O)cc(-c2cc3ccc(O)cc3o2)cc1O [MORACIN C],IC50,[1],0.21 µM
same,IC50,[2],1.21 µM
same,IC50,[3],2.35 µM
O=C(O)CCCc1c[nH]c2ccccc12,IC50,[4],17.8 µM
O=C(Cc1c[nH]c2ccccc12)NN=C(c1ccccc1)c1ccccc1,IC50,[4],53.6 µM
CC(C)c1ccc2c(c1)c(SC(C)(C)C)c(CC(C)(C)C(=O)O)n2Cc1ccc(Cl)cc1,IC50,[5],0.102 µM
Cc1cc(=O)oc2cc(OCC(O)CNc3nc4ccc(Cl)cc4s3)ccc12 (stereo not given),IC50,[6],2.8 µM
Cc1cc(Nc2nc(-c3ccc(Cl)cc3)cs2)cc(C)c1O,IC50,[7],0.127 µM
C/C(=C\COc1cc2oc(=O)ccc2cc1O)C/C=C/C(C)(C)O,inhibition,[8],34.8%
CC(C)/C=C/c1c(O)cc(-c2cc3ccc(O)cc3o2)cc1O,IC50,[1],1.3 µM
same,IC50,[3],1.67 µM
O=C(O)Cc1c[nH]c2ccccc12 [INDOLE-3-ACETIC ACID],IC50,[4],43 µM
CS(=O)(=O)c1ccc(-n2nc(-c3ccc(-c4ccccc4)cc3)c3ccccc3c2=O)cc1,IC50,[9],6.2 µM
CCCCC(=O)c1c(O)cc(O)c(C/C=C(\C)CCC=C(C)C)c1O,IC50,[10],10.3 µM
CC[C@H](C)/C=C(C)/C=C/C1=C(Br)C2=CC(=O)C(C)(O)C(=O)C2=CO1 (stereo not given in full),IC50,[11],3.2 µM
CS(=O)(=O)c1ccc(-c2nc(SCCN(O)C(N)=O)nn2-c2ccc(Br)cc2)cc1,IC50,[4],0.85 µM
same,Activity,Mus musculus,54.1%
COc1ccc2nc(NCC(O)COc3ccc4c(C)cc(=O)oc4c3)sc2c1 (stereo not given),IC50,[6],2.1 µM
Cc1noc(-c2ccc(OCc3ccc4ccccc4n3)cc2)c1-c1ccc(Cl)cc1,IC50,[12],4.4 µM
